A short description of test [1]: Cytotoxicity against human SW1116 cells assessed as cell proliferation inhibition rate at 1 ug/ml after 24 hrs by MTT assay. Conditions: SW 1116, 24 h. The format is functional. Background: Tetrazolium dyes change colour on reduction, which living cells bring about.
Test [2] in a line: Cytotoxicity against human SW1116 cells assessed as cell proliferation inhibition rate at 10 ug/ml after 24 hrs by MTT assay. The format is functional. Conditions: SW 1116, 24 h.
The nature of test [3]: Cytotoxicity against human SW1116 cells assessed as cell proliferation inhibition rate at 0.1 ug/ml after 24 hrs by MTT assay. Conditions: SW 1116, 24 h. The format is functional.
Test [4] has as its system SGC-7901. Put plainly: Cytotoxicity against human SGC7901 cells assessed as cell mortality after 20 hrs by MTT assay. The format is functional, cell-based. Conditions: SGC-7901, 20 h.

The text below walks through data of ChEMBL document CHEMBL1681671, “Substrate-controlled chemoselective synthesis and potent cytotoxic activity of novel 5,6,7-triarylpyrido[2,3-d]pyrimidin-4-one derivatives” (Bioorg Med Chem Lett, 2011).

Converted amounts (≈) assume the structure as drawn.

As usually defined, the inhibition is the relative decrease from the control value, in per cent. As usually defined, the IC50 is the concentration needed to halve the response being measured.

Regarding `COc1ccccc1[C@@H]1c2c(nc(N)[nH]c2=O)N=C(c2ccccc2)[C@H]1c1ccccc1` (racemic), the inhibition at 1 µg/mL in test [1] came out at 6.47%. The inhibition at 10 µg/mL in test [2] was 31.6%. Further, in test [3], the inhibition at 0.1 µg/mL was determined as 22.4%. The half-maximal inhibitory concentration (IC50) in test [4] was determined as 0.359 µg/mL (≈ 0.85 µM).
Regarding `Nc1nc2c(c(=O)[nH]1)C(c1ccc3c(c1)OCO3)C(c1ccccc1)=C(c1ccccc1)N2` (stereo unspecified), the inhibition at 1 µg/mL in test [1] is 34.6%. For the same compound, the inhibition at 10 µg/mL in test [2] was 20.6%. For the same compound, the inhibition at 0.1 µg/mL in test [3] is 15.1%. Further, the IC50 in test [4] turned out to be 0.09 µg/mL (≈ 0.206 µM).
For the compound `Nc1nc2c(c(=O)[nH]1)C(c1ccc(F)cc1)C(c1ccccc1)=C(c1ccccc1)N2` (stereo unspecified), in test [1], the inhibition at 1 µg/mL was determined as 17.6%. The inhibition at 10 µg/mL in test [2] was 50.3%. Also, the inhibition at 0.1 µg/mL in test [3] was 31.6%. For the same compound, the IC50 in test [4] was determined as 13 µg/mL (≈ 31.8 µM).
Turning to `Nc1nc2c(c(=O)[nH]1)C(c1cccs1)C(c1ccccc1)=C(c1ccccc1)N2` (stereo unspecified), the inhibition at 1 µg/mL in test [1] was found to be 37.2%. Moreover, the inhibition at 10 µg/mL in test [2] stood at 48.3%. Moreover, in test [3], the inhibition at 0.1 µg/mL stood at 22.4%. The concentration for half-maximal inhibition (IC50) in test [4] is 0.108 µg/mL (≈ 0.271 µM).
On to `Nc1nc2c(c(=O)[nH]1)C(c1ccc(Cl)cc1)C(c1ccccc1)=C(c1ccccc1)N2` (stereo unspecified), for which the inhibition at 1 µg/mL in test [1] stood at 25.1%. Further, the inhibition at 10 µg/mL in test [2] is 25.5%. Further, in test [3], the inhibition at 0.1 µg/mL worked out at 14.9%. In test [4], the IC50 was found to be 0.104 µg/mL (≈ 0.244 µM).
With `COc1cccc2c1C(=O)c1c(O)c3c(c(O)c1C2=O)C[C@@](O)(C(=O)CO)C[C@@H]3O[C@H]1C[C@H](N)[C@H](O)[C@H](C)O1.Cl` [DOXORUBICIN HYDROCHLORIDE], the inhibition at 10 µg/mL in test [2] worked out at 28.5%. Also, the IC50 in test [4] was found to be 0.078 µg/mL.
Consider `Nc1nc2c(c(=O)[nH]1)[C@@H](c1ccccc1Cl)[C@H](c1ccccc1)C(c1ccccc1)=N2` (racemic), for which the inhibition at 1 µg/mL in test [1] was 27.3%. The inhibition at 10 µg/mL in test [2] was 38.7%. Also, in test [3], the inhibition at 0.1 µg/mL came to 31.8%. In addition, in test [4], the IC50 is 1.56 µg/mL (≈ 3.67 µM).
Turning to `Nc1nc2c(c(=O)[nH]1)C(c1ccc(Br)cc1)C(c1ccccc1)=C(c1ccccc1)N2` (stereo unspecified), the inhibition at 1 µg/mL in test [1] is 19.3%. In addition, the inhibition at 10 µg/mL in test [2] stood at 12%. Besides, in test [3], the inhibition at 0.1 µg/mL turned out to be 19.8%. For the same compound, the IC50 in test [4] came to 0.074 µg/mL (≈ 0.157 µM).
The like results for `CN(C)c1ccc(C2C(c3ccccc3)=C(c3ccccc3)Nc3nc(N)[nH]c(=O)c32)cc1` (stereo unspecified) were, in that order, 27.9%, 14%, 20.5% and 0.79 µg/mL (≈ 1.81 µM).
With `COc1ccc([C@@H]2c3c(nc(N)[nH]c3=O)N=C(c3ccccc3)[C@H]2c2ccccc2)cc1OC` (racemic), in test [1], the inhibition at 1 µg/mL is 13.8%. Moreover, the inhibition at 10 µg/mL in test [2] came out at 23.9%. Besides, the inhibition at 0.1 µg/mL in test [3] stood at 2.24%. Besides, in test [4], the IC50 turned out to be 0.606 µg/mL (≈ 1.34 µM).
The like results for `COc1ccc(C2C(c3ccccc3)=C(c3ccccc3)Nc3nc(N)[nH]c(=O)c32)cc1` (stereo unspecified) were, in that order, 29.1%, 42.8%, 43% and 0.341 µg/mL (≈ 0.807 µM).
For the compound `COc1cc([C@@H]2c3c(nc(N)[nH]c3=O)N=C(c3ccccc3)[C@H]2c2ccccc2)cc(OC)c1OC` (racemic), the inhibition at 1 µg/mL in test [1] was 16.7%. The inhibition at 10 µg/mL in test [2] was 36.9%. Also, the inhibition at 0.1 µg/mL in test [3] worked out at 21.8%. Besides, the IC50 in test [4] is 2.98 µg/mL (≈ 6.17 µM).
